The record followed here is patent US7557103B2, “Imidazopyridazine compounds” (Eli Lilly and Company, priority 2005, dated 2009).

Numbering of substitutions follows the chain as printed. Read-outs that look alike come from different tables or passages of the source.

The target in one data set is T1, human CRF1 (Homo sapiens, UniProt P34998).
T1 construct: expressed in transfected cells; membranes
T1 sequence (P34998 24-415): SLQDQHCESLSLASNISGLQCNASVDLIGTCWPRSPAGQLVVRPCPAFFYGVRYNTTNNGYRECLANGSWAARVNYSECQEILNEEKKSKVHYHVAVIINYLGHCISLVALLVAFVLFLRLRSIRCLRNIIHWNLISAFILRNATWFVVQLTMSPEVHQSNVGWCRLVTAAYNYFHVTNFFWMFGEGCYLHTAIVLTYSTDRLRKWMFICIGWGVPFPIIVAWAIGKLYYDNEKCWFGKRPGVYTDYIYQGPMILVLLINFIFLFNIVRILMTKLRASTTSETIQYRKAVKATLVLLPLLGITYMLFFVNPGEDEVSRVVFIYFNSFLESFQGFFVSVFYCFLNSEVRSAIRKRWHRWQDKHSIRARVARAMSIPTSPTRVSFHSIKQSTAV
Put plainly: CRF1 filter binding assay. Particulars: HEK-hCRF1 membranes, 125I-sauvagine; read-out: Ki (inhibition constant). How it is done: The limitations of plasmid-based human CRF1 expression, in terms of generating a recombinant cell line with sufficient receptor density to develop a binding assay, are overcome by using a Phoenix retroviral expression system licensed from Stanford. The stable HEK-hCRF1 cell line is used to prepare membranes and binding reactions (200 μl) are set up as follows: 50 μl of ^125I-sauvagine (0.2 nM final), 50 μl compound and 100 μL CRF1 membrane (25 μg/reaction). The reactions are incubated at room temperature for 2 hours and then terminated by filtration through pre-treated FB Millipore glass fiber filter plates (96 well). The plates are wash twice with ice-cold assay buffer (50 mM tris, 12.5 mM NaCl, 1 mM EDTA, 10 mM MgCl2, 0.05% BSA, pH 7.2), air dried over night and counted with 100 μl Microscint 40 in a MicroBeta counter. Non-specific binding (NSB) is determined in the presence of 0.5 μM non-labeled sauvagine. Triplicate determinations are typically run and the median data points plotted by Graph Pad Prism.

The nature of data set [1]: Rat intravenous pharmacokinetics (volume of distribution, plasma clearance). Particulars: for clearance: male, Sprague-Dawley, plasma, iv, 3 mg/kg; for rat Vdist: single intravenous dose (3 mg/kg).
Method: (§1) To test for volume of distribution, Male Sprague Dawley rats (N=3) are administered a single 3 mg/kg intravenous dose of compound. Multiple plasma samples are collected at time points from 0.08 to 24 hours post-dose. The plasma samples are analyzed by LC/MS/MS to determine the plasma concentrations. Plasma pharmacokinetic calculations are performed to determine the pharmacokinetic parameters including Vdist and plasma clearance (Clp).
Data set [2] addresses T2, binding of ^125I-sauvagine to the cerebellum (Rattus norvegicus, UniProt P35353).
T2 construct: from tissue; host or cells: rat cerebellum
T2 sequence (P35353 24-415): T1 sequence (P34998 24-415) with H6R, S9N, A13T, I16V, M153V, G163A, I209V, Y229H, H356R
Nature of the data set: In vivo potency assessment using ex vivo binding. Particulars: oral route, ex vivo binding of 125I-sauvagine to the cerebellum. How it is done: To assess in vivo potency, a compound of the present invention is evaluated using ex vivo binding. Using the procedures as provided in D. R. Gehlert et al., EJP 509: 145-153 (2005), a compound is administered to a rat via the oral route.

A short description of a further data set: in vivo. As to conditions: male, Sprague-Dawley, rat, iv, 3 mg/kg.
For data set [3] the following is noted: male, Sprague-Dawley, in vivo, iv, 3 mg/kg.
Method: as §1
The target of the next data set is T3, human CRF2 (Homo sapiens, UniProt Q13324).
T3 construct: expressed in transfected cells; membranes
T3 sequence (Q13324 1-411): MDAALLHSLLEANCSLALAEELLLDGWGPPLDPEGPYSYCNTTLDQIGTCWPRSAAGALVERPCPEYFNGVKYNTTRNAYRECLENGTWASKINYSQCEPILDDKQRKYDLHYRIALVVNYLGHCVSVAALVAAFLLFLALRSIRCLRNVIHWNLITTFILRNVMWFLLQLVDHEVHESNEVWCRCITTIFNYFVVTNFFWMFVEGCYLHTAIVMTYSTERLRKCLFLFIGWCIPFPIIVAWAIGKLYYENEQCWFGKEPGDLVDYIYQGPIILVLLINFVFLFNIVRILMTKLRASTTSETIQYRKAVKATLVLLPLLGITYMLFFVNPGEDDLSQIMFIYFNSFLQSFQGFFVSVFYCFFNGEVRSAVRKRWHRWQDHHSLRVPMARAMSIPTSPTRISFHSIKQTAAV
Nature of the data set: CRF2 filter binding assay. As to conditions: 50 μM compound, HEK-hCRF2 membranes, 125I-sauvagine; read-out: percent inhibition at 50 μM. How it is done: The limitations of plasmid-based human CRF2 expression, in terms of generating a recombinant cell line with sufficient receptor density to develop a binding assay, are overcome by using a Phoenix retroviral expression system licensed from Stanford. The stable HEK-hCRF2 cell line is used to prepare membranes and binding reactions (200 A1) are set up as follows: 50 ul of ^125I-sauvagine (0.2 nM final concentration), 501 compound and 100 μl CRF2 membrane (25 μg/reaction). The reactions are incubated at room temperature for 2 hours and then terminated by filtration through pre-treated FB Millipore glass fiber filter plates (96 well). The plates are washed twice with ice-cold assay buffer (50 mM tris, 12.5 mM NaCl, 1 mM EDTA, 10 mM MgCl2, 0.05% BSA, pH 7.2), air dried over night and counted with 100 μl Microscint 40 in a MicroBeta counter. Non-specific binding (NSB) is determined in the presence of 0.5 μM non-labeled sauvagine. Alternatively, compounds are evaluated using a Scintillation Proximity assay. […] Bound radioactivity is assessed using a Wallac Trilux scintillation counter. Binding is assessed typically using triplicate determinations and the median data points plotted by Graph Pad Prism. […]

In general, Ki refers to the dissociation constant of the complex between target and ligand, obtained from inhibition or displacement. The term clearance denotes the rate of elimination divided by the concentration. Low values mean inefficient removal, high ones efficient removal. Regarding `CCC(CC)c1cc(C)nn2c(-c3sc4ccc(F)cc4c3C)c(C)nc12` [Example 1, 8-(1-ethyl-propyl)-2,6-dimethyl-3-(5-fluoro-3-methyl-benzo[b]thiophen-2-yl)-imidazo[1,2-b]pyridazine], on human CRF1, the Ki was 16.3 nM. In data set [1], the clearance was 9 mL/min/kg and the “rat Vdist” value was determined as 8 L/kg.
As a reminder, the ED50 is the dose at which the effect has come halfway, by size or by number of responders. A low value points to an effect at a small dose. Turning to `CCC(CC)c1cc(C)nn2c(-c3cc4ccc(Cl)cc4n3C)c(C)nc12` [Example 34, 3-(6-chloro-1-methyl-1H-indol-2-yl)-8-(1-ethyl-propyl)-2,6-dimethyl-imidazo[1,2-b]pyridazine], the ED50 in data set [2] came to 5.5 mg/kg. In “in vivo”, this compound yielded a clearance of 14 mL/min/kg. The “rat Vdist” value in data set [3] turned out to be 15 L/kg.
Turning to `CCCN(CCC)c1cc(C)nc2c(-c3cnc(N(C)C)cc3C)c(C)nn12` [NBI30775], in data set [1], the “rat Vdist” value was 76 L/kg.
In the case of `CCCCN(CC)c1nc(C)nc2c1c(C)cn2-c1c(C)cc(C)cc1C` [CP154526], in data set [1], the clearance came out at 83 mL/min/kg and the “rat Vdist” value came to 114 L/kg.
`CCC(CC)c1cc(C)nn2c(-c3cc4cc(F)ccc4n3C)c(C)nc12` [Example 8, 8-(1-ethyl-propyl)-2,6-dimethyl-3-(5-fluoro-1-methyl-indol-2-yl)-imidazo[1,2-b]pyridazine]: the clearance in the data set “in vivo” worked out at 29 mL/min/kg. Besides, the “rat Vdist” value in data set [3] amounted to 17 L/kg.
In the same order, the values of `CCC(CC)c1cc(C)nn2c(-c3sc4ccccc4c3C)c(C)nc12` [Example 2, 8-(1-ethyl-propyl)-2,6-dimethyl-3-(3-methyl-benzo[b]thiophen-2-yl)-imidazo[1,2-b]pyridazine] are 12 mL/min/kg and 10 L/kg.
As usually defined, the inhibition is how much of the control response was suppressed. For `CCC(CC)c1cc(C)nn2c(-c3c(C)oc4c(C(C)(C)O)cccc34)c(C)nc12` [Example 88, 2-{3-[8-(1-ethyl-propyl)-2,6-dimethyl-imidazo[1,2-b]pyridazin-3-yl]-2-methyl-benzofuran-7-yl}-propan-2-ol], the inhibition at 50 µM at human CRF2 came out at 27 ± 3%. Moreover, at human CRF1, the inhibitory constant (Ki) was determined as 19.2 ± 4.8 nM.
